Like-named read-outs stand apart in the source and are kept apart here. Values belong to the compound of their own block, whether it stands above or below them.
Legend:
Candida bombicola = format: cell-based; settings: for number of colony forming units: ester 30 g/l in total
Description: A one litre baffled shake flask was filled with 200 ml medium according to Lang and co-workers (2000) and inoculated with Candida bombicola and left to grow at 30°C and 200 rpm. After 48 h 10 g/l Dodecyl glutarate was added. On day 5, 6 and 7 another 7.5 , 5 and 7.5 g/l ester was added. On day 10 the fermentation was stopped. The number of colony forming units was somewhat lower compared to fermentations on rapeseed oil or glucose. […] The sophorolipid yield as gravimetrically determined amounted 26 g/l. The residual ester concentration was 13 g/l. Dodecyl glutarate is a solid which was difficult to dose and tended to agglomerate, thus limiting the availability to Candida and probably causing part of the residual substrate. […] These peaks were identified by RP-HPLC-MS (Waters ZQ) using quadrupole electrospray negative ion detection (see figure 1). […] Both the lactonic and the acid diacetylated form were identified as well as traces of monoacetylated species. [formula]
To verify whether the ester or the glutaric acid which may be released following hydrolysis during the fermentation were toxic, 200 ml cultures were set up in one litre shaking flasks at 200 rpm. After 48 hours glutaric acid was added; 0, 10 or 100 %, the latter corresponding to the maximum amount of glutaric acid after hydrolysis of 30 g/l dodecyl glutarate (which equals the total amount of substrate added for synthesis). Eight days after the initial addition of glutaric acid the fermentation was stopped. […] It is therefore concluded that the toxicity of dodecyl glutarate is due to the product itself, rather than to hydrolysis products.
Taking into account the above results, a new experiment was set up in a Biostat B5 containing 3 litre medium to which 4g/l rapeseed oil was added in order to avoid toxic effects during the growth phase. From 48 hours onwards small portions of dodecyl glutarate, ester T0 in table 3 were added daily, totalling 145.5 gram during 7 days. Dodecyl glutarate has the same apparent chain length as stearic acid. After the last addition on day 8, the fermentation was run for another 48 hour and terminated 240 hours after the start. The fermentor was operated at 800 rpm mixing speed, 30°C and 1 vvm aeration, always assuring far higher oxygen concentrations than the 15% or less described in US6433152. After 140 hours the initial glucose was almost completely consumed and an additional 43 g/l was added. The pH was kept at 3.5 with 5 M NaOH and the oxygen saturation was varied between 70 and 85% during the production phase, rising 10 to 20 hours after each addition, which indicated the substrate was more or less consumed. The number of CFU in the production phase remained at approximately 6.10^9/ml, the dry cell weight at about 15 g/l, both values being considerably lower than typical values for rapeseed oil fermentations with resp. […] After about 200 hours more and more yeast cells changed aspect from the normal round shape to a flattened shape. This forms an indication of the stress the cells were experiencing due to the product formed and or the decreasing glucose concentration. […]
A new T2 batch was produced with increased care to completely remove the solvent. This batch was not toxic, with the number of CFU remaining stable (above 10^9/ml) over time, independent of the substrate concentration.
Shakeflask experiments with decyl heptanoate (ester T10 in table 2) gave similar results, indicating high toxicity for the first ester batch. […] The mass spectrometric analysis after alkaline hydrolysis of sophorolipids obtained from T10 ester, other than the obvious de novo sophorolipids and hydroxy dodecanoic acid is summarized in table 6 below. […] Note that again methyl terminated sophorolipids as well as sophorolipids with surplus glucose units were identified as de novo synthesized products. For both esters the dissolved oxygen concentration never came below 40% and averaged 65% (T2) and 63% (T10). […]

[1] = to clarify 100 ml AD solution of 2.5 wt. % laureth sulphate and 10% NaOH
Description: In this example the amount of hydrotrope needed to clarify a 100 ml AD solution of 2.5 wt. % laureth sulphate and 10% NaOH.

M. furfur = assay: Minimal inhibitory concentration, agar dilution with olive oil overlay; format: cell-based; settings: 48 hours at 37°C, Sabouraud's dextrose agar with olive oil
Description: The yeast M. furfur is one of the natural causes of dandruff formation. Since it is a lipophilic yeast, the in vitro growth must be stimulated by natural oils or other fatty substances when determining minimal inhibitory concentrations (MIC). We used the most common method, which is to overlay Sabouraud's dextrose agar containing cycloheximide (actidione) with olive oil.
A dilution series (1, ½ ¼, 1/8, 1/16..) was prepared. One ml of this dilution was added to 3 petri dishes per concentration and mixed with the warm agar. After cooling a drop of the yeast culture suspension was dropped on the petri dish and left to grow for 48 hours at 37°C.
The MIC was determined for azelaic acid (pa VWR) neutralized with NaOH, azelaic mixture with SL9:0 (from ex.O.1) and calcium purified azelaic mixture with SL9:0. Whereas a 30% azelaic solution was needed for complete inhibition was needed, only 20% of the (SL9-azelaic) mixture of ex.O.1 was needed.

[2] = shake flask, new/improved ester batch, solvent removed
[3] = shake flask, 10 or 100 % of the amount released from 30 g/l dodecyl glutarate, 8 days

Structure (SMILES): CCCCCCCCCCCCOC(=O)CCCC(=O)O [dodecyl glutarate, Dodecyl glutarate]
toxicity (Candida bombicola; Biostat B5 fermentor): moderate toxicity
number of CFU in the production phase (Candida bombicola; Biostat B5 fermentor, 145.5 gram ester during 7 days): approximately 6.10^9 /ml
dry cell weight (Candida bombicola; Biostat B5 fermentor, production phase): about 15 g/l
toxicity effect of the ester (Candida bombicola; shake flask fermentation): moderate toxicity effect
number of colony forming units (Candida bombicola; shake flask, at the end of the experiment (day 10)): ~1.10^9 /ml
number of colony forming units (Candida bombicola; shake flask, value before the drop (printed 'approx. 4', x 10^9 implied)): approx. 4 /ml

Structure (SMILES): O=C(O)CCCC(=O)O [glutaric acid, reference compound]
growth in terms of colony forming units (Candida bombicola; [3]): did not inhibit growth
sophorolipid production by Candida bombicola (Candida bombicola; [3]): nor did it lower the sophorolipid production

Structure (SMILES): CCO [Ethanol]
% active matter needed [1]: 26%

Structure (SMILES): O=C(O)CCCCCCCC(=O)O [azelaic acid]
MIC (lowest concentration which completely inhibits growth) (M. furfur): 30%

More lines, main results first:

number of CFU (Candida bombicola; shake flask, new batch, stable over time, independent of substrate concentration): above 10^9 /ml
Structure (SMILES): CCCCCCCCCCCCOC(=O)CCCC [dodecyl pentanoate]
substrate concentration from which toxicity was shown (Candida bombicola; shake flask, first ester batch): ≥ 10 mM
substrate toxicity (Candida bombicola; shake flask, first ester batch): pronounced substrate toxicity
substrate toxicity (Candida bombicola; [2]): not toxic

number of CFU (Candida bombicola; shake flask, improved batch, after reduction): 3 x 10^9 CFU/ml
number of CFU (Candida bombicola; shake flask, improved batch, before reduction): 6,5 x 10^9 CFU/ml
Structure (SMILES): CCCCCCCCCCOC(=O)CCCCCC [decyl heptanoate]
substrate toxicity (Candida bombicola; shake flask, first ester batch): high toxicity
substrate toxicity (Candida bombicola; [2]): slightly toxic

Reference: patent EP1953237A1, “A method for the production of short chained glycolipids” (ECOVER N.V., priority 2007, dated 2008)
